Source: patent US9815841B2, “Compounds” (GLAXOSMITHKLINE INTELLECTUAL PROPERTY DEVELOPMENT LIMITED, priority 2014, dated 2017)

Biological target: T1, purified recombinant 6HIS-Tev-LRRK2 (1326-2527) (Homo sapiens, UniProt Q5S007)
T1 construct: A LRRK2 cDNA encoding residues 1326-2527 was received from Dundee University; made in house; host or cells: Spodoptera frugiperda (Sf9) insect cells, baculovirus (pFB-HTb)
T1 sequence (Q5S007 1326-2527): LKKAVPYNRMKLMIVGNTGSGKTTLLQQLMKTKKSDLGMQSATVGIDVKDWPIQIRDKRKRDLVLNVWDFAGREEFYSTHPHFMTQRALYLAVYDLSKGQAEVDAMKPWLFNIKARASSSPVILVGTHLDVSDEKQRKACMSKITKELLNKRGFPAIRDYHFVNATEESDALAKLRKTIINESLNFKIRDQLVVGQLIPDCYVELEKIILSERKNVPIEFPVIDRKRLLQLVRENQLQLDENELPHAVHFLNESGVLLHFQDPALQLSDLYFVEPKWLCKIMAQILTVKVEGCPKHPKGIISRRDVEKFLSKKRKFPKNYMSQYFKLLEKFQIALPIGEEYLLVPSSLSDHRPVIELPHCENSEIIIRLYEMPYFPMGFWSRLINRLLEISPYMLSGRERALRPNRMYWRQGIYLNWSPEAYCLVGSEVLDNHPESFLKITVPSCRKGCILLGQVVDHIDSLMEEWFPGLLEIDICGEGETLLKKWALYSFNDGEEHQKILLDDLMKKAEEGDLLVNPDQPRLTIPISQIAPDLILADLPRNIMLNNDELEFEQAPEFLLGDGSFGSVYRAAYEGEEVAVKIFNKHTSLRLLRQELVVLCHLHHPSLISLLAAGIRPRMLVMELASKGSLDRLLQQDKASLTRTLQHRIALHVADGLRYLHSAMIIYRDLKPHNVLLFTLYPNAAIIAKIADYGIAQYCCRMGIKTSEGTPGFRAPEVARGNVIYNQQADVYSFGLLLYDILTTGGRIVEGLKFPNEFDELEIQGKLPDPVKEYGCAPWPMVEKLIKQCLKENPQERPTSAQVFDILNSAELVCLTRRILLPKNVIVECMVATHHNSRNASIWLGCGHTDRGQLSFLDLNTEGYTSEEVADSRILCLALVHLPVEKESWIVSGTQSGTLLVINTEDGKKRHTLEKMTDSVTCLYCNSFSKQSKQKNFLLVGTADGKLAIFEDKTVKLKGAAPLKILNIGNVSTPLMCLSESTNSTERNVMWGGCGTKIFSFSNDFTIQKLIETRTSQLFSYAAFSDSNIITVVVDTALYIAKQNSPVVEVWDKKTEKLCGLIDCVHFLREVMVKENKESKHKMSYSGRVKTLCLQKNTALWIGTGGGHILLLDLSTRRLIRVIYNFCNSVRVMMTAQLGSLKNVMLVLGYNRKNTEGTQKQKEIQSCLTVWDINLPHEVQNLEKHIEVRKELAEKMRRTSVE
Experiment: Recombinant LRRK2 enzyme peptide substrate TR-FRET assay
Assay type: biochemical
Conditions: 60 nM LRRK2 (1326-2527), 1 uM Biotin-longer LRRKtide, 10 uM ATP; read-out: recombinant LRRK2 enzyme peptide substrate TR-FRET assay (pIC50) (converted)
Description: This gene fragment was subcloned into pFB-HTb (Invitrogen) using BamHI and NotI restriction sites. The LRRK2 plasmid was recombined into the baculovirus genome according to the BAC-to-BAC protocol described by Invitrogen. Transfection into Spodoptera frugiperda (Sf9) insect cells was performed using Cellfectin (Invitrogen), according to the manufacturer's protocol to generate P1 and P2 baculovirus stocks.
Sf9 cells were grown in HyClone SFX (Thermo Scientific) growth media at 27° C., 80 rpm in shake flask until of a sufficient volume to inoculate a bioreactor. […] The cells were infected with P2 Baculovirus at a multiplicity of infection (MOI) of 3. The cultivation was continued for a 48 hour expression phase. The infected cells were removed from the growth media by centrifugation at 2500 g using a Sorvall RC 3C Plus centrifuge at 2500 g for 20 minutes. The cell pellet was immediately frozen and subsequently supplied for purification.
A 260 g pellet was allowed to thaw in a water bath at 27° C. with 800 ml lysis buffer/buffer A (50 mm Tris-HCl pH 8.5, 300 mM NaCl, 1 mm DTT, 10% glycerol, 1 ml/L calbiochem complete protease inhibitor cocktail and benzonase (50 ul/800 ml)) before being dounce homogenised on ice using 20 strokes per 100 ml. The suspension was packed in ice and sonicated at 50% amplitude for 3 min 10 sec on/off using a ¾″ probe. The suspension was then centrifuged at 100,000 g for 90 min, at 4° C.
The lysate (700 ml) was decanted from the insoluble pellet and contacted for 3 h at 4 C with 10 ml His bind Ni NTA resin by end over end mixing. The resin was recovered by centrifugation, 3000 g, 5 min at 4 C, and packed in an XK16 column. The column was then washed with 10 column volumes buffer A, 10 column volumes buffer B (buffer A+1M NaCl) and 10 column volumes buffer C (buffer A+20 mM imidazole). The column was then eluted with 15 column volumes buffer D (buffer A+300 mM imidazole) collecting 2 ml fractions. All washes and elution were conducted at 4 ml/min.
Fractions identified by SDS-PAGE as containing protein of interest were pooled and loaded directly onto a 320 ml SEC Superdex 200 pg column that was pre-equilibrated with buffer E (50 mM Tris-HCl pH 8.5, 300 mM NaCl, 10% glycerol, 1 mM DTT). The column was loaded and eluted with 1.2 column volumes buffer E at 2 ml/min collecting 2 ml fractions. Fractions identified by SDS-PAGE as containing protein of interest were tested for activity.
Production of Biotin-Longer LRRKtide
The resulting crude peptide was cleaved from the resin using a 95:2.5:2.5 mix of trifluoroacetic acid:triisopropylsilane:water.
Recombinant LRRK2 Enzyme Peptide Substrate TR-FRET Assay
Assay Protocol • 1. A 10 mM test compound was dissolved in 100% DMSO and serially diluted 1 in 4. 100 nL was then added to a 384 well low volume black plate, excluding columns 6 and 18. 100 nL of DMSO was added to columns 6 and 18 as controls wells. […] Test plates were then incubated for 30 minutes at room temperature. • 3. 3 uL ‘substate solution’ containing 2 uM Biotin-longer LRRKtide peptide substrate and 20 uM ATP was added to all wells of the plate using a multidrop combi dispenser giving a final assay concentration of 1 uM Biotin-longer LRRKtide and 10 uM ATP. Test plates were then incubated for 2 hours at room temperature. (Incubation may vary depending on rate and linearity of reaction with different enzyme batches). • 4. […] Data is analysed using ActivityBase software (IDBS). Dilutions and concentrations of reagents determined on a batch to batch basis

| IC50 [nM] | SMILES |
| --- | --- |
| 15.8 | CCOc1nc(Nc2ccc(C(=O)N3CCC4(CC3)CC4)cc2OC)nc2[nH]ccc12 [Example E16, (4-((4-ethoxy-7H-pyrrolo-[2,3-d]-pyrimidin-2-yl)amino)-3-methoxyphenyl)(6-azaspiro-[2.5]octan-6-yl)methanone] |
| ≤ 10 | CCOc1nc(Nc2ccc(C(=O)N3CCC4(CC3)CN(C)C4)cc2OC)nc2[nH]ccc12 [Example E13, (4-((4-ethoxy-7H-pyrrolo-[2,3-d]-pyrimidin-2-yl)amino)-3-methoxyphenyl)(2-methyl-2,7-diazaspiro-[3.5]-nonan-7-yl)methanone] |
| 7.94 | CCOc1nc(Nc2ccc(C(=O)N3CCN(C)CC3)cc2OC)nc2[nH]ccc12 [Example E3, (4-((4-ethoxy-7H-pyrrolo-[2,3-d]-pyrimidin-2-yl)amino)-3-methoxyphenyl)(4-methylpiperazin-1-yl)-methanone] |
| ≤ 10 | CCOc1nc(Nc2ccc(C(=O)N3CCOC[C@@H]3C)cc2OC)nc2[nH]ccc12 [Example E27, (S)-(4-((4-ethoxy-7H-pyrrolo-[2,3-d]pyrimidin-2-yl)amino)-3-methoxyphenyl)(3-methylmorpholino)methanone] |
| 10 | CCOc1nc(Nc2ccc(C(=O)N3CCN(C)C[C@H]3C)cc2OC)nc2[nH]ccc12 [Example E40, (R)-(2,4-dimethylpiperazin-1-yl)(4-((4-ethoxy-7H-pyrrolo-[2,3-d]-pyrimidin-2-yl)-amino)-3-methoxyphenyl)methanone] |
| 7.94 | CCOc1nc(Nc2cc(F)c(C(=O)N3CCOCC3)cc2OC)nc2[nH]ccc12 [Example E2, (4-((4-ethoxy-7H-pyrrolo-[2,3-d]-pyrimidin-2-yl)amino)-2-fluoro-5-methoxyphenyl)(morpholino)methanone] |
| ≤ 10 | CCOc1nc(Nc2ccc(C(=O)N3CCN(C)CC3)cc2OC)nc2[nH]cc(C)c12 [Example E31, (4-((4-ethoxy-5-methyl-7H-pyrrolo-[2,3-d]pyrimidin-2-yl)amino)-3-methoxyphenyl)(4-methylpiperazin-1-yl)methanone] |
| ≤ 10 | CCOc1nc(Nc2ccc(C(=O)N3CCC(N4CCN(C)CC4)CC3)cc2OC)nc2[nH]ccc12 [Example E4, (4-((4-ethoxy-7H-pyrrolo-[2,3-d]pyrimidin-2-yl)amino)-3-methoxyphenyl)(4-(4-methylpiperazin-1-yl)-piperidin-1-yl)-methanone] |
| ≤ 10 | CCOc1nc(Nc2ccc(C(=O)N3CCOCC3)cc2)nc2[nH]ccc12 [Example E9, (4-((4-ethoxy-7H-pyrrolo-[2,3-d]pyrimidin-2-yl)amino)phenyl)(morpholino)methanone] |
| 10 | CCOc1nc(Nc2ccc(C(=O)N3CCN(C)CC3)cc2OC(C)C)nc2[nH]ccc12 [Example E24, (4-((4-ethoxy-7H-pyrrolo-[2,3-d]pyrimidin-2-yl)amino)-3-isopropoxyphenyl)(4-methylpiperazin-1-yl)methanone] |
| 10 | CCOc1cc(C(=O)N2CCOCC2)ccc1Nc1nc(OCC)c2cc[nH]c2n1 [Example E20, (3-ethoxy-4-((4-ethoxy-7H-pyrrolo-[2,3-d]pyrimidin-2-yl)amino)phenyl)(morpholino)methanone] |

| SMILES | IC50 [nM] |
| --- | --- |
| CCOc1nc(Nc2ccc(C(=O)N3CCOCC3)cc2OC)nc2[nH]ccc12 [Example E1, (4-((4-ethoxy-7H-pyrrolo-[2,3-d]-pyrimidin-2-yl)amino)-3-methoxyphenyl)(morpholino)methanone] | 12.6 |
